Measured values as given in US11478489B2, “Selective accretion of cytoprotectant in radiation-sensitive tissues and uses thereof” (WILLIAM MARSH RICE UNIVERSITY, priority 2017, dated 2022).
Like-named read-outs stand apart in the source and are kept apart here.

Tests used:
[1] = Methylene blue gut assay (GI transit time); assay type: in vivo, C57BL/6 mice
Method: In order to determine the rate at which oral solutions such as WR-2721 traverse the digestive tract of 8-week old C57BL/6 mice following oral gavage, a 1% (w/v) solution of methylene blue in PBS was gavaged in a total volume of 0.1 ml. Mice were then euthanized at 5, 10, 15, 25 and 30 min after the dye administration and the progress of the methylene blue stain through the intestines was examined. Mice were anesthetized with isoflurane 8 min prior to euthanasia following the same procedure used prior to irradiation (8 min at 3% isoflurane and oxygen flow rate of 2 L/min) to account for any potential changes it might have on GI transit time. Methylene blue dye progress was examined in situ for comparison with the location of our standard radiation field and then the intestine was excised so that distance traveled could be determined.

[2] = LC/MS-MS analysis of WR-1065 plasma and tissue concentrations, C57BL/6 mice; conditions: WR-2721 500 mg/kg oral, 25 min
Method: Mice were treated with either 500 mg/kg of WR-2721 by oral gavage, or 250 mg/kg by IP injection. After 17 min had elapsed, the mice were anesthetized with isoflurane gas (3% isoflurane, oxygen flow rate of 2 L/min). After 8 min of anesthesia, whole blood and tissues were collected. The total amount of time between treatment and tissue collection was 25 min.
While under isoflurane anesthesia, the whole blood sample was collected via cardiac puncture and was immediately transferred to a BD Microtainer® blood collection tube containing K2-EDTA (Becton Dickinson; Franklin Lakes, N.J.). The K2-EDTA whole blood was then processed to plasma by centrifugation at 3,000 g for 4 min. After processing, a volume of the plasma supernatant (typically 200 μL) was removed and immediately transferred to a fresh 1.4 mL Matrix polypropylene (PP) tube (Thermo Fisher Scientific; Waltham, Mass.) containing a 50 μL aliquot of 10% trichloroacetic acid (TCA). After vortexing, the TCA-treated plasma samples were stored on ice for transport from the vivarium to the laboratory for further processing. The TCA-treated plasma samples were then centrifuged at 17,000 g for 5 min, and the supernatant was transferred to a fresh 1.4 mL Matrix tube, and the samples were either extracted and analyzed immediately or capped for −80° C. storage until analysis. […]

[3] = tested on: KPC mice with spontaneous pancreatic cancer; assay: Survival of tumor-bearing KPC mice after SBRT; assay type: in vivo, Kras LSL/+; Trp53 FL/+; Ptf1a Cre/+ (KPC) mice; conditions: SBRT 12.5 Gy x 5 + oral WR-2721 25 min prior to each fraction; VEH and SBRT+VEH 15 days
Method: (§1) For survival studies, SBRT was given for 5 consecutive days 25 min after administration of vehicle or WR-2721 using the XRAD 225Cx small animal irradiator (Precision X-Ray; North Branford, Conn.) fitted with a conformal collimator to produce a circular 10 mm diameter radiation field. Mice were anesthetized with isoflurane gas for CT imaging and irradiation. Each mouse was imaged using the XRAD 225Cx cone beam CT prior to irradiation in order to align the radiation field so that the cranial edge of the field was located 5 mm below the diaphragm at the isocenter of the mouse. This field exposed the pancreas, duodenum, jejunum and liver to radiation. Radiation was administered anterior-posterior-posterio-anterior (AP-PA).
(§2) Mice were treated with WR-2721 or vehicle by intraperitoneal (IP) injection or oral gavage followed by SBRT and monitored on a daily basis. […] Time to euthanasia and percent survival were assessed.
Further confirmation is illustrated in FIG. 6. KPC Mice were enrolled onto the study shortly after diagnosis and were treated to vehicle alone, SBRT with vehicle or SBRT with oral WR-2721. The SBRT field was 10 mm given AP/PA to the tumor and the dose was 12.5 Gy per day for 5 consecutive days for a total dose of 62.5 Gy (EQD2=117.2 Gy; α/β10=140.6). The tumors were identified by micro CT and ultrasound on a daily basis without fiducials. […]

[4] = tested on: C57BL/6 mice given lethal fractionated radiation; assay: Survival study after fractionated SBRT to the upper abdomen; assay type: in vivo, C57BL/6JLaw mice; conditions: oral 500 mg/kg 25 min prior to each of 5 daily fractions of 12.5 Gy, 10 mm field; all vehicle controls died in fewer than 10 days
Method: as §1, §2
It was hypothesized that the maximal benefit of radioprotection would likely occur between 12 and 13 Gy at 12.5 Gy×5 fractions (62.5 Gy; D2Eq=117.2 Gy). […] Remarkably, 100% of mice that received oral WR-2721 lived beyond 30 days, while all vehicle controls died in fewer than 10 days FIG. 3D, log rank p=0.0035).

[5] = Tolerability: body weight and food consumption as a model of nausea; assay type: in vivo, C57BL/6JLaw mice
Method: (§3) WR-2721 Trihydrate (Toronto Research Chemicals Inc; North York, Ontario, Canada) was diluted in PBS (with 0.2 conversion factor to adjust for trihydrate) and was administered by IP injection at 25 or 250 or 500 mg/kg or by oral gavage at doses […] 150 to 1000 mg/kg in a volume of 0.1 ml.
Severe nausea is a common and worrisome side effect of systemic WR-2721, and the concern that oral administration of the drug might exacerbate this side effect was examined. […] Thus, body weight and food consumption was closely monitored as a model of nausea in mice. Based on the results of the microcolony assay (FIG. 1), 500 mg/kg were used as the dose for toxicity testing. Mice were treated daily for 5 consecutive days with vehicle or WR-2721 administered IP or Per os (PO), and body weight and food consumption were monitored daily (FIGS. 2A and 2B, respectively). There was only one vehicle control group that was subjected to both gavage and intraperitoneal injections to more stringently control for the stress of drug administration from either IP or PO route. Despite this intensive intervention, the vehicle control animals maintained their initial bodyweight and food consumption throughout the study (FIGS. 2A and 2B).

[6] = mouse, in vivo, 25 min
Method: Next, the specificity of WR-1065 enrichment in intestines was determined in a genetically engineered mouse model. Kras^LSL/+; Trp53^FL/+; Ptfla^Cre/+ (KPC) mice that develop spontaneous pancreatic cancer were bred, and then backcrossed to a C57BL/6 background over 10 generations to eliminate the confounding issue of genetic variance from […] mice. These autochthonous tumors are thought to recapitulate the desmoplasia observed in human tumors that may make these tumors more aggressive. To be an effective an effective clinical radioprotectant, WR-1065 should not accumulate in tumors. Thus, plasma, liver, duodenum, jejunum and pancreatic tumors were collected 25 min after oral administration of 500 mg/kg (HED=41 mg/kg), or IP administration of 250 mg/kg WR-2721 (HED=20 mg/kg) to determine the concentrations of the WR-1065 (see schema in FIG. 4D).

[7] = tested on: duodenal and jejunal crypts; assay: Microcolony assay (Withers-Elkind), surviving crypts after 12 Gy whole body irradiation; assay type: in vivo, C3Hf/KamLaw mice; conditions: jejunum, oral, 30 min prior to 12 Gy WBI; no further benefit at 1000 mg/kg
Method: as §3
For the microcolony assay, a single dose of 12 Gy whole body irradiation (WBI) was administered 15 min or 30 min after WR-2721 treatment using a Pantak 300 x-ray unit (Pantak; East Haven, Conn.), with 300 kVp X-rays at a dose rate of 1.84 Gy/min. Un-anesthetized mice were loosely restrained in a well ventilated 15×15×2 cm Lucite box during WBI.
Viable jejunal crypts were quantified following a single dose of 12 Gy WBI+/− a single oral dose of WR-2721 given at 15 min or 30 min prior to radiation using the microcolony assay. Mice were euthanized 3 days and 14 hours after receiving WBI, and segments of jejunum and duodenum were resected and fixed in 10% neutral buffered formalin. Tissue was then embedded in paraffin, and four transverse slices of jejunum and duodenum were stained with hematoxylin and eosin per mouse. The number of regenerating crypts per transverse section was scored microscopically and averaged over the 4 sections per animal for each tissue type. All slides were scored by a single observer blinded to treatment group. […]

[8] = given intravenously; cited from earlier work
[9] = oral 500 mg/kg daily for 5 consecutive days

CN(C)c1ccc2nc3ccc(=[N+](C)C)cc-3sc2c1 [Methylene blue, methylene blue]
time at which dye was in the jejunum ([1]; C57BL/6, mouse, in vivo, po): 15 to 30 min | time to reach the duodenum ([1]; C57BL/6, mouse, in vivo, po): ≤ 10 min | dye front within 30 min ([1]; oral gavage, 1% (w/v) in PBS, 0.1 ml): had not reached the cecum or large intestine

NCCCNCCSP(=O)(O)O [WR-2721, S-2-(3-aminopropylamino)ethyl dihydrogen phosphorothioate]
enhancement of WR-1065 within duodenum and jejunum compared to liver [2]: six- to twelve-fold | median survival [3]: 40 days | mice that lived beyond 30 days [4]: 100% | day by which euthanasia was required ([5]; intraperitoneal 500 mg/kg daily): ≤ 4 days | body weight and food consumption ([5]; intraperitoneal 500 mg/kg daily, 5 consecutive days planned): dramatic decrease in food consumption and body weight | body weight and food consumption [5, 9]: modest initial decrease in body weight and food consumption | time to complete recovery of body weight after stopping treatment [5, 9]: ≤ 2 days | WR-1065 concentration in duodenum ([6]; ip, 250 mg/kg): 236.2±8.6 pmol WR-1065/mg tissue | WR-1065 concentration in jejunum ([6]; ip, 250 mg/kg): 275.5±5.0 pmol WR-1065/mg tissue | WR-1065 concentration in liver ([6]; ip, 250 mg/kg): 420±69.8 pmol WR-1065/mg tissue | WR-1065 concentration in pancreatic tumors ([6]; ip, 250 mg/kg): 248±30.2 pmol WR-1065/mg tissue | WR-1065 concentration in duodenum ([6]; po, 500 mg/kg): 200.6±23.3 pmol WR-1065/mg tissue | WR-1065 concentration in jejunum ([6]; po, 500 mg/kg): 757.7±26.8 pmol WR-1065/mg tissue | WR-1065 concentration in liver ([6]; po, 500 mg/kg): 59.9±26.8 pmol WR-1065/mg tissue | WR-1065 concentration in tumor ([6]; po, 500 mg/kg): 24.5±1.9 pmol WR-1065/mg tissue | enrichment of the drug in the intestines compared to tumor ([6]; po, 500 mg/kg): 10-40 fold | dose at which radiation protection was maximized [7]: 500 mg/kg | side effects [8]: severe nausea and hypotension
